Data from patent US20110190267A1, “PRODRUGS OF OPIOIDS AND USES THEREOF” (priority 2010, published 2011).
Where “and” joins values, the source holds several entries; their conditions need not be identical. Equal entries are not always repeated.

How the values were obtained:
[1] = Pharmacokinetics of meptazinol from PABA analogue prodrugs, monkeys (Example 26); assay type: in vivo; settings: monkey, plasma, po, 2 mg/kg
Procedure: (§1) Blood samples were taken at various times after administration and submitted to analysis for the parent drug and prodrug using a validated LC-MS-MS assay. Pharmacokinetic parameters derived from the plasma analytical data were determined using Win Nonlin.

[2] = Pharmacokinetics of meptazinol from PABA analogue prodrugs, dogs (Example 26); assay type: in vivo; settings: dog, plasma, po, 1 mg/kg
Procedure: as §1

[3] = Pharmacokinetics of meptazinol or meptazinol PABA carbamate, dogs (Example 27); assay type: in vivo, dog; settings: for Vd: read-out: Vss; for Fabs: meptazinol
Text: The results are given in Tables 8 to 11 and shown graphically in FIG. 2.

[4] = Pharmacokinetics of meptazinol or meptazinol PABA carbamate, monkeys (Example 29); assay type: in vivo, monkey; settings: for AUC / C0 / t½ / Cmax / T>50%Cmax / Tmax / half-life: meptazinol in plasma; for Fabs: meptazinol; for Vd: read-out: Vss; for half-life: read-out: t½ (converted)
Text: The results are given in Tables 15 to 18 and shown graphically in FIG. 4.

[5] = target: T1, Acetylcholinesterase (h), human recombinant (HEK-293 cells) (Homo sapiens, UniProt P22303); test: Human acetylcholine esterase inhibition (Example 31); assay type: biochemical; settings: AMTCh 50 μM, 30 min./37° C., photometry; read-out: apparent IC50
T1 construct: host or cells: HEK-293 cells
Procedure: The results are expressed as a percent of control specific activity ((measured specific activity/control specific activity)×100) obtained in the presence of the test compounds.
The IC50 values (concentration causing a half-maximal inhibition of control specific activity), and Hill coefficients (nh) were determined by non-linear regression analysis of the inhibition curves generated with mean replicate values using hill equation curve fitting (y=d+[(a−d)/(1+(c/c50)^nh)], where y=specific activity, d=minimum specific activity, a=maximum specific activity, c=compound concentration, C50=IC50, and nh=slope factor).
This analysis was performed using software developed at Cerep (Hill software) and validated by comparison with data generated by the commercial software Sigmaplot® 4.0 for Windows®.

[6] = Norbury et al. (1983); cited from earlier work
[7] = Pharmacokinetics of meptazinol or meptazinol PABA carbamate, rats (Example 30); settings: for Fabs: meptazinol; for clearance: CL; for Vd: Vss
Procedure: Blood samples were taken at various times after administration and submitted to analysis for the parent drug and pro-drug using a validated LC-MS-MS assay. Pharmacokinetic parameters derived from the plasma analytical data were determined using Win Nonlin.

[8] = read-out: AUC* (mean ngh/mL), AUC0-t
[9] = dog, plasma, iv, 1 mg/kg, iv meptazinol 1 mg free base equivalents/kg, individual animals
[10] = dog, plasma, iv, 1 mg/kg, iv meptazinol 1 mg free base equivalents/kg, mean
[11] = iv meptazinol 1 mg free base equivalents/kg, individual animals
[12] = meptazinol in plasma, oral meptazinol 1 mg free base equivalents/kg, individual animals
[13] = meptazinol in plasma, oral meptazinol 1 mg free base equivalents/kg, mean
[14] = oral meptazinol 10 mg free base equivalents/kg, individual animals
[15] = oral meptazinol 10 mg free base equivalents/kg, mean
[16] = monkey, plasma, iv, 1 mg/kg, iv meptazinol 1 mg free base equivalents/kg, individual animals
[17] = monkey, plasma, iv, 1 mg/kg, iv meptazinol 1 mg free base equivalents/kg, mean
[18] = iv meptazinol 1 mg free base equivalents/kg, rats, individual animals
[19] = meptazinol in plasma, iv meptazinol 1 mg free base equivalents/kg, rats, individual animals
[20] = meptazinol in plasma, oral meptazinol 1 mg free base equivalents/kg, rats, individual animals
[21] = rat, plasma, iv, 1 mg/kg, iv meptazinol 1 mg free base equivalents/kg, rats, individual animals
[22] = rat, plasma, iv, 1 mg/kg, iv meptazinol 1 mg free base equivalents/kg, rats, mean

T1 sequence (P22303 32-614): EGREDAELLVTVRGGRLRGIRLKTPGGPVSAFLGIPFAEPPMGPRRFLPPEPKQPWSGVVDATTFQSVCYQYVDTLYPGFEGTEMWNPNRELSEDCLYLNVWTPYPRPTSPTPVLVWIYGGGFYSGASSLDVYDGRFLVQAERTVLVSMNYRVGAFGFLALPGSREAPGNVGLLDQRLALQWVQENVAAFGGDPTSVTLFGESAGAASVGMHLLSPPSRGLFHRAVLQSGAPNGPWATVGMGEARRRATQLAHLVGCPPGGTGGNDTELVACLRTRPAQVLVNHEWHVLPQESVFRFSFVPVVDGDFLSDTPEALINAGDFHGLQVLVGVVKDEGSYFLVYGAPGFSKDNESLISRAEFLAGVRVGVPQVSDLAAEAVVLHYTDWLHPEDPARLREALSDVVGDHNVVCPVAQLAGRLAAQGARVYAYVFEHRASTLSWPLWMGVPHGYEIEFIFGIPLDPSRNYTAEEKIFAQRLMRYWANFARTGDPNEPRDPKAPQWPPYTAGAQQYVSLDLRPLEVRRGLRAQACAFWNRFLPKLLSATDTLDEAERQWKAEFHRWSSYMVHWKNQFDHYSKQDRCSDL

Compound: CCC1(c2cccc(O)c2)CCCCN(C)C1 (stereo not shown) [meptazinol]
- Cmax [1]: 1.3 ± 0.3 ng/mL
- AUC(0-t) [1, 8]: 3.1 ± 0.7 ng·h/mL
- Cmax [2]: 4 ± 5.5 ng/mL
- AUC(0-t) [2, 8]: 5.4 ± 5.9 ng·h/mL
- clearance [3, 9]: 67.3 mL/min/kg
- Vd [3, 9]: 4.14 L
- clearance [3, 10]: 62.7 mL/min/kg
- Vd [3, 10]: 3.55 L
- AUC ([3]; dog, plasma, iv, 1 mg/kg, meptazinol in plasma, iv meptazinol 1 mg free base equivalents/kg, individual animals, read-out: AUC): 247 ng·h/mL
- AUC ([3]; dog, plasma, iv, 1 mg/kg, meptazinol in plasma, iv meptazinol 1 mg free base equivalents/kg, mean, read-out: AUC): 269 ng·h/mL
- Cmax ([3]; dog, plasma, po, 1 mg/kg, meptazinol in plasma, oral meptazinol 1 mg free base equivalents/kg, individual animals, read-out: Cmax): 4.22 ng/mL
- AUC ([3]; dog, plasma, po, 1 mg/kg, meptazinol in plasma, oral meptazinol 1 mg free base equivalents/kg, mean, read-out: AUC): 15.6 ng·h/mL
- half-life ([3]; dog, plasma, po, 1 mg/kg, meptazinol in plasma, oral meptazinol 1 mg free base equivalents/kg, mean, read-out: t½ (converted)): 108 min
- CL [3, 11]: 60.8 mL/min/kg and 57.2 mL/min/kg and 54.5 mL/min/kg and 73.3 mL/min/kg
- Co ([3]; meptazinol in plasma, iv meptazinol 1 mg free base equivalents/kg, individual animals): 340 ng/mL and 308 ng/mL and 350 ng/mL and 402 ng/mL and 477 ng/mL
- Co ([3]; meptazinol in plasma, iv meptazinol 1 mg free base equivalents/kg, mean): 375 ng/mL
- AUC [3, 12]: 15.1 ng · h/mL and 15.8^b ng · h/mL and 23.3 ng · h/mL and 19.6^b ng · h/mL and 8.52 ng · h/mL
- Cmax [3, 12]: 6.82 ng/mL and 6.79 ng/mL and 5.04 ng/mL and 3.52 ng/mL
- T>50%Cmax [3, 12]: 2.5 h and 1.1 h and 1.9 h and 2.4 h and 1.8 h
- Tmax [3, 12]: 0.5 h and 1 h (2×)
- Cmax [3, 13]: 5.28 ng/mL
- T>50%Cmax [3, 13]: 1.9 h
- Fabs ([3]; oral meptazinol 1 mg free base equivalents/kg, individual animals): 6.1% and 5.8% and 8.0% and 6.4% and 3.8%
- Fabs ([3]; oral meptazinol 1 mg free base equivalents/kg, mean): 6.0±2.1% and 6.0%
- CL [4, 11]: 66.2 mL/min/kg and 73.2 mL/min/kg and 77.3 mL/min/kg and 70.3 mL/min/kg
- Vss [4, 11]: 4.88 L and 4.11 L and 4.96 L
- AUC [4, 11]: 252 ng·h/mL and 228 ng·h/mL and 215 ng·h/mL and 237 ng·h/mL
- C0 [4, 11]: 334 ng/mL and 226 ng/mL (2×) and 369 ng/mL
- t½ [4, 11]: 49.8 min and 40.8 min and 52.2 min
- AUC [4, 14]: 47.7 ng·h/mL and 37.7 ng·h/mL and 38.2 ng·h/mL and 47.8 ng·h/mL
- Cmax [4, 14]: 18.3 ng/mL and 19.8 ng/mL and 22.5 ng/mL and 19 ng/mL
- T>50%Cmax [4, 14]: 0.9 h and 2.4 h and 1.7 h and 1.4 h and 2.3 h
- Tmax [4, 14]: 120 min and 60 min
- t½ [4, 14]: 48 min and 54 min and 42 min
- T>50%Cmax [4, 15]: 1.7 h
- Fabs [4, 14]: 1.6% (3×) and 2.0% (2×)
- Fabs [4, 15]: 1.8%
- clearance [4, 16]: 73.7 mL/min/kg
- Vd [4, 16]: 4.83 L
- clearance [4, 17]: 72.2 mL/min/kg
- Vd [4, 17]: 4.72 L
- AUC ([4]; monkey, plasma, iv, 1 mg/kg, iv meptazinol 1 mg free base equivalents/kg, individual animals, read-out: AUC): 227 ng·h/mL
- C0 ([4]; monkey, plasma, iv, 1 mg/kg, iv meptazinol 1 mg free base equivalents/kg, individual animals, read-out: C0): 211 ng/mL
- half-life [4, 16]: 48.6 min
- AUC ([4]; monkey, plasma, iv, 1 mg/kg, iv meptazinol 1 mg free base equivalents/kg, mean, read-out: AUC): 232 ng·h/mL
- C0 ([4]; monkey, plasma, iv, 1 mg/kg, iv meptazinol 1 mg free base equivalents/kg, mean, read-out: C0): 273 ng/mL
- half-life [4, 17]: 50.4 min
- AUC ([4]; monkey, plasma, po, 10 mg meptazinol free base equivalents/kg, oral meptazinol 10 mg free base equivalents/kg, individual animals, read-out: AUC): 39.4 ng·h/mL
- Cmax ([4]; monkey, plasma, po, 10 mg meptazinol free base equivalents/kg, oral meptazinol 10 mg free base equivalents/kg, individual animals, read-out: Cmax): 26.1 ng/mL
- half-life ([4]; monkey, plasma, po, 10 mg meptazinol free base equivalents/kg, oral meptazinol 10 mg free base equivalents/kg, individual animals): 60 min
- AUC ([4]; monkey, plasma, po, 10 mg meptazinol free base equivalents/kg, oral meptazinol 10 mg free base equivalents/kg, mean, read-out: AUC): 42.2 ng·h/mL
- Cmax ([4]; monkey, plasma, po, 10 mg meptazinol free base equivalents/kg, oral meptazinol 10 mg free base equivalents/kg, mean, read-out: Cmax): 21.1 ng/mL
- half-life ([4]; monkey, plasma, po, 10 mg meptazinol free base equivalents/kg, oral meptazinol 10 mg free base equivalents/kg, mean): 48 min
- Tmax ([4]; monkey, plasma, po, 10 mg meptazinol free base equivalents/kg, oral meptazinol 10 mg free base equivalents/kg, median value, read-out: Tmax): 30 min
- IC50 [5]: 1500 nM
- oral bioavailability [6]: < 10%
- CL [7, 18]: 75.2 mL/min/kg and 88.3 mL/min/kg and 89.3 mL/min/kg and 92.2 mL/min/kg
- Vss [7, 18]: 4.0 L and 5.4 L (2×) and 5.1 L
- AUC [7, 19]: 222 ng·h/mL and 189 ng·h/mL and 187 ng·h/mL and 181 ng·h/mL
- C0 [7, 19]: 246 ng/mL and 259 ng/mL and 267 ng/mL and 244 ng/mL
- t½ [7, 19]: 36 min and 42 min
- AUC* ([7]; meptazinol in plasma, oral meptazinol 1 mg free base equivalents/kg, rats, calculated based on half-life from previous iv study, individual animals): 3.1 ng·h/mL and 2.8 ng·h/mL and 4.9 ng·h/mL
- Cmax [7, 20]: 1.12 ng/mL and 1.49 ng/mL and 1.44 ng/mL
- t½* [7, 20]: 54 min
- Fabs ([7]; oral meptazinol 1 mg free base equivalents/kg, rats, individual animals): 1.6% (2×) and 1.5% and 2.6%
- Fabs ([7]; oral meptazinol 1 mg free base equivalents/kg, rats, mean): 1.8±0.5% and 1.8%
- AUC ([7]; rat, plasma, iv, 1 mg/kg, AUC, meptazinol in plasma, iv meptazinol 1 mg free base equivalents/kg, rats, individual animals): 161 ng·h/mL
- AUC ([7]; rat, plasma, iv, 1 mg/kg, AUC, meptazinol in plasma, iv meptazinol 1 mg free base equivalents/kg, rats, mean): 188 ng·h/mL
- C0 ([7]; rat, plasma, iv, 1 mg/kg, C0, meptazinol in plasma, iv meptazinol 1 mg free base equivalents/kg, rats, individual animals): 191 ng/mL
- C0 ([7]; rat, plasma, iv, 1 mg/kg, C0, meptazinol in plasma, iv meptazinol 1 mg free base equivalents/kg, rats, mean): 241 ng/mL
- clearance [7, 21]: 104 mL/min/kg
- clearance [7, 22]: 89.7 mL/min/kg
- Vd [7, 21]: 6.8 L
- Vd [7, 22]: 5.3 L
- half-life ([7]; rat, plasma, iv, 1 mg/kg, t½, meptazinol in plasma, iv meptazinol 1 mg free base equivalents/kg, rats, individual animals): 48 min
- half-life ([7]; rat, plasma, iv, 1 mg/kg, t½, meptazinol in plasma, iv meptazinol 1 mg free base equivalents/kg, rats, mean): 42 min
- Tmax ([7]; rat, plasma, po, 1 mg/kg): 30 min
- AUC ([7]; rat, plasma, po, 1 mg/kg, AUC*, meptazinol in plasma, oral meptazinol 1 mg free base equivalents/kg, rats, calculated based on half-life from previous iv study, individual animals): 2.9 ng·h/mL
- AUC ([7]; rat, plasma, po, 1 mg/kg, AUC*, meptazinol in plasma, oral meptazinol 1 mg free base equivalents/kg, rats, calculated based on half-life from previous iv study, mean): 3.4 ng·h/mL
- Cmax ([7]; rat, plasma, po, 1 mg/kg, Cmax, meptazinol in plasma, oral meptazinol 1 mg free base equivalents/kg, rats, individual animals): 1.93 ng/mL
- Cmax ([7]; rat, plasma, po, 1 mg/kg, Cmax, meptazinol in plasma, oral meptazinol 1 mg free base equivalents/kg, rats, mean): 1.6 ng/mL
- half-life ([7]; rat, plasma, po, 1 mg/kg, t½*, meptazinol in plasma, oral meptazinol 1 mg free base equivalents/kg, rats, mean): 78 min
